# Laboratory results reported in patent US20180051017A1, “AGENT FOR TREATMENT OF SCHIZOPHRENIA” (Sumitomo Dainippon Pharma Co., Ltd., priority 2002, published 2018).
# Counter-ions that a name gives are not always drawn.
# Assays:
# [1] = test system: patients with schizophrenia in the acute exacerbation phase; test: First stage phase II clinical trial, placebo-controlled double-blind: efficacy (BPRS, PANSS, CGI-S/I); assay type: in vivo, human
# Method: (§1) According to the procedures as shown in Table 1 as described below, the placebo-controlled double blind experiment was done on 149 patients with schizophrenia in the acute exacerbation phase at 15 facilities in USA. The efficacy and safeness were studied when SM-13496 at a dose of 40 mg or 120 mg, or a placebo was orally administered once a day for 6 weeks after placebo washout.
# [2] = test system: patients with schizophrenia in the acute exacerbation phase; test: First stage phase II clinical trial: extrapyramidal symptom rating scales (AIMS, BAS, SAS); assay type: in vivo, human; conditions: for SAS (parkinsonism) score change, Average (SD) / BAS Global score (akathisia) change, Average (SD) / AIMS (dyskinesia) score change, Average (SD): n = 44-47
# Method: as §1
# As is shown in Table 7, among the adverse events, the main side effects, a relationship of which to the SM-13496 cannot be denied, was suppression, nausea, akathisia, free-floating vertigo (excluding rotatory vertigo), sleepiness, headache. The occurrence of dystonic reaction was low (less than 4%) in the SM-13496-treated groups.
smiles,measurement,setting,value
"O=C1[C@@H]2[C@@H]3CC[C@@H](C3)[C@@H]2C(=O)N1C[C@@H]1CCCC[C@H]1CN1CCN(c2nsc3ccccc23)CC1 [SM-13496, (1R,2S,3R,4S)-N-[(1R,2R)-2-[4-(1,2-benzoisothiazol-3-yl)-1-piperazinyl-methyl]-1-cyclohexylmethyl]-2,3-bicyclo[2.2.1]heptanedicarboximide hydrochloride]","Reductions in BPRS, CGI-I and CGI-S scores at end of trial compared to placebo","[1]; 40 mg or 120 mg, 6 weeks after the administration",statistically significant
same,"Responder (BPRS reduction 20% or more, or CGI-I 1 or 2), Number","[1]; 40 mg orally once a day for 6 weeks, 47 subjects, p 0.002 vs placebo",26
same,"BPRS Total Score, change from before administration at end of trial (LOCF), Average (SD)","[1]; 40 mg orally once a day for 6 weeks, 47 subjects, p 0.014 vs placebo",−10.0
same,"PANSS Total Score, change from before administration at end of trial (LOCF), Average (SD)","[1]; 40 mg orally once a day for 6 weeks, 47 subjects, p 0.063 vs placebo",−14.1
same,"CGI-I at end of trial, Average (SD)","[1]; 40 mg orally once a day for 6 weeks, n = 47, p 0.013 vs placebo",3.2 (1.56)
same,Ratio of responders compared to placebo,[1]; 40 mg- or 120 mg-treated group,statistically significant difference
same,"BPRS Total Score, change from before administration at end of trial (LOCF), Average (SD)","[1]; 120 mg orally once a day for 6 weeks, 44 subjects, p 0.003 vs placebo",−11.3 (8.89)
same,"Responder (BPRS reduction 20% or more, or CGI-I 1 or 2), Number","[1]; 120 mg orally once a day for 6 weeks, 44 subjects, p 0.007 vs placebo",22
same,"PANSS Total Score, change from before administration at end of trial (LOCF), Average (SD)","[1]; 120 mg orally once a day for 6 weeks, 44 subjects, p 0.010 vs placebo",−17.4 (15.70)
same,"CGI-I at end of trial, Average (SD)","[1]; 120 mg orally once a day for 6 weeks, n = 42, p 0.005 vs placebo",3.0 (1.29)
same,Reduction in PANSS score at end of experiment compared to placebo,"[1]; 120 mg, 6 weeks",statistically significant
same,BPRS total score (LOCF) change with time compared to placebo (FIG. 1),"[1]; SM-13496-treated groups, at 2 weeks or later, p<0.05",statistically significantly reduced
same,"SAS (parkinsonism) score change, Average (SD)","[2]; 40 mg orally once a day for 6 weeks, p 0.588 vs placebo",0.1 (1.08)
same,"BAS Global score (akathisia) change, Average (SD)","[2]; 40 mg orally once a day for 6 weeks, p 0.687 vs placebo",0.1 (1.04)
same,"AIMS (dyskinesia) score change, Average (SD)","[2]; 40 mg orally once a day for 6 weeks, p 0.978 vs placebo",0.7 (2.88)
same,"Changes in AIMS, BAS, SAS score between the treated groups","[2]; 40 mg, 120 mg and placebo groups",no significant difference
same,"BAS Global score (akathisia) change, Average (SD)","[2]; 120 mg orally once a day for 6 weeks, p 0.352 vs placebo",0.4 (0.94)
same,"AIMS (dyskinesia) score change, Average (SD)","[2]; 120 mg orally once a day for 6 weeks, p 0.467 vs placebo",0.2 (2.21)
same,"SAS (parkinsonism) score change, Average (SD)","[2]; 120 mg orally once a day for 6 weeks, p 0.808 vs placebo",0.1 (1.11)
same,Ratio of the patients requiring benztropine,[2]; SM-13496-treated groups,24%
